# Data: patent publication US5874446A, “Benzopyran derivatives” (Chugai Seiyaku Kabushiki Kaisha, priority 1992, dated 1999)
# How the values were obtained:
# [1] = tested on: Excised Aorta of Rat (thoracic aorta ring preparations); test: Test with Excised Aorta of Rat: relaxation of lasting contraction by KCl; assay type: cell-based, male Sprague Dawley rat; conditions: 50% inhibitory concentration, relaxation of 30 mM KCl contraction, Krebs-Henseleit, 37° C.
# Protocol: Test with Excised Aorta of Rat
# The thoracic aorta was excised from a male Sprague Dawley rat (450 to 600 g) and cut into 2 mm wide ring preparations. Each preparation was suspended in 10 ml of an Organ bath containing a Krebs-Henseleit solution (NaCl:119; KCl:4.8; CaCl2.2H2 O:2.53; KH2 PO4 :1.2; MgSO4.7H2 O:1.2; NaHCO3 :24.8; glucose:10(mM); 37° C.) under a tension of 2 g, and a mixed gas of 95% O2 and 5% CO2 was bubbled therethrough. Contraction reactions of the preparation were isometrically recorded by means of an FD pick-up. […] The activity of a test compound to relax a lasting contraction by the addition of KCl was evaluated by obtaining a 50% inhibitory concentration (IC50)
# The compounds of the present invention obtained in the foregoing Examples and Cromakalim was used as test compound for comparison.
# [2] = tested on: Guinea Pig Tracheal Muscle; test: Test with Guinea Pig Tracheal Muscle: relaxing activity on spontaneous tension; assay type: cell-based, male Hartley guinea pig; conditions: Cavia porcellus; 50% relaxing activity; 1 mM aminophylline on spontaneous tension taken as 100%; Krebs-Henseleit, 37° C.
# Protocol: Test with Guinea Pig Tracheal Muscle
# The trachea was excised from a male Hartley guinea pig (450 to 550 g) to make chain preparations. The preparation was suspended in a bath containing the abovementioned Krebs-henseleit solution (37° C.) through which a mixed gas of 95% O2 and 5% CO2 was bubbled. Contraction reactions of the preparation were isometrically recorded under a tension of 1 g.
# The same test compound as used in Text Example 1 were used.
Compound,IC50 [1] [nM],IC50 [2] [nM]
"CC1(C)Oc2ccc(C#N)cc2[C@@H](N2CCCC2=O)[C@@H]1O (relative stereo) [Cromakalim, reference compound]",170,860
"O=c1ccccn1C1=CC(CF)(CF)Oc2ccc([N+](=O)[O-])cc21 [Compound 12, 2,2-Bisfluoromethyl-6-nitro-4-(1,2-dihydro-2-oxo-1-pyridyl)-2H-1-benzopyran]",2.5,5.9
"[O-][n+]1ccccc1C1=CC(CF)(CF)Oc2ccc(C(F)(F)C(F)(F)F)cc21 [Compound 48, 2-(6-Pentafluoroethyl-2,2-bisfluoromethyl-2H-1-benzopyran-4-yl)pyridine N-oxide]",1.6,3.9
"[O-][n+]1ccccc1C1=CC(CF)(CF)Oc2ccc(C(F)(F)F)cc21 [Compound 50, 2-(2,2-Bisfluoromethyl-6-trifluoromethyl-2H-1-benzopyran-4-yl)pyridine N-oxide]",,18
"N#C[N-][n+]1ccccc1C1=CC(CF)(CF)Oc2ccc([N+](=O)[O-])cc21 [Compound 52, 2-(2,2-Bisfluoromethyl-6-nitro-2H-1-benzopyran-4-yl)pyridine N-cyanoimine]",2,12
"N#C[N-][n+]1ccccc1C1=CC(CF)(CF)Oc2ccc(C(F)(F)C(F)(F)F)cc21 [Compound 55, 2-(6-Pentafluoroethyl-2,2-bisfluoromethyl-2H-1-benzopyran-4-yl)pyridine N-cyanoimine]",0.82,6.3

# More lines, now with the values ahead:
IC50 [1] [nM],IC50 [2] [nM],Compound
74,390,"N#Cc1ccc2c(c1)[C@@H](N1CCCC1=O)[C@H](O)C(CF)(CF)O2 (relative stereo) [Compound 2-2, Trans-6-cyano-2,2-bisfluoromethyl-3,4-dihydro-4-(2-oxo-1-pyrrolidinyl)-2H-1-benzopyran-3-ol]"
0.28,6.9,"O=C1CCCCN1[C@@H]1c2cc(C(F)(F)C(F)(F)F)ccc2OC(CF)(CF)[C@H]1O (relative stereo) [Compound 4-2, Trans-6-pentafluoroethyl-2,2-bisfluoromethyl-3,4-dihydro-4-(2-oxo-1-piperidinyl)-2H-1-benzopyran-3-ol]"
2.6,6.8,"O=C1CCCCN1[C@@H]1c2cc([N+](=O)[O-])ccc2OC(CF)(CF)[C@H]1O (relative stereo) [Compound 6-2, Trans-2,2-bisfluoromethyl-3,4-dihydro-6-nitro-4-(2-oxo-1-piperidinyl)-2H-1-benzopyran-3-ol]"
